Test system: HBV
Experiment: HepG2-NTCP infection protocol, HBeAg quantification by ECL-ELISA
Format: cell-based
Details: HepG2-NTCP cells infected with HBV at MOI 50, compound 24 hours, then 72 hours, HBeAg in supernatant
Protocol: HepG2 cells expressing the sodium taurocholate cotransporting polypeptide (HepG2-NTCP) were maintained in culture using HepG2-NTCP growth medium (DMEM (HyClone, Cat #SH30243.02) supplemented with 10% FBS, 150 μg/mL G418 (Alfa Aesar, Cat #J62671), 50 U/mL penicillin-streptomycin (Invitrogen, Cat #15140-122), and 0.5 μg/mL blasticidin (Sigma, Cat #15205)). Prior to infection, the cells were washed twice with 1×DPBS (Invitrogen, Cat #14190-136) and treated with 3 mL of 0.05% trypsin (Invitrogen, Cat #25200-056) to dissociate the cells. Following dissociation, 10 mL of HepG2-NTCP growth medium was added to the cells to neutralize the trypsin and the cells were then centrifuged at 1,300 rpm for 5 minutes. Following centrifugation, the cells were resuspended in 10 mL of HepG2-NTCP growth medium, counted, and then centrifuged at 1,300 rpm for 5 minutes. The cell pellet was resuspended in DMEM supplemented with 5% FBS, 50 U/mL penicillin-streptomycin, 4% PEG-8000 (Hamilton Research, Cat #HR2-515), and 1% DMSO (Sigma, Cat #D4540) to a density of 5.6×10^5 cells/mL and infected with HBV at an MOI of 50. Immediately after infection, 90 μL of the cell/HBV mixture was added to a 96-well plate containing 10 μL of compound and incubated at 37° C. for 24 hours (2% final DMSO concentration). After the incubation, the infection media was removed and replaced with DMEM supplemented with 5% FBS, 50 U/mL penicillin-streptomycin, and 1% DMSO and incubated for an additional 72 hours. At the end of the incubation, the plates were spun at 1,800 rpm for 8 minutes and the supernatant was removed for HBeAg quantification using electrochemiluminescence enzyme-linked immunosorbent assays (ECL-ELISA).
To conduct the HBeAg ECL-ELISA, Lumitrack high-binding 96-well plates (Greiner, Cat #655074) were treated with 625 ng/mL HBeAg mAb (Biocheck, Cat #70426) in 1×DPBS for 2 hours at 25° C. with shaking. The HBeAg mAb solution was then removed and the plates treated with 1×DPBS containing 0.5% bovine serum albumin (BSA) (Sigma, Cat #A7030-100 g) for 2 hours at 25° C. with shaking. The HBeAg-coated plates were then washed 4 times with 1×DPBS containing 0.05% Tween 20 (DPBS-T) (Thermo Fisher Scientific, Cat #J61544-K2). Following the wash, 90 μL of HRP-conjugated antibody (Fitzgerald, Cat #61-H10K), diluted 1:8,000 in 1×DPBS-T containing 0.5% BSA, was added to the HBeAg-coated plates along with 10 μL of sample. The plates were then incubated for 2 hours at 25° C. with shaking. Following the incubation, the sample was then removed and 200 μL of 1×PBS-T was added and the plates were incubated for 10 minutes at 25° C. with shaking. The plates were then washed 6 times with 1×PBS-T and blotted dry. 80 μL of ECL substrate (Millipore, Cat #WBKLS0500) was then added to the plate and the luminescence was measured using a Tecan M1000 Pro plate reader.

SMILES | EC50 (Hepatitis B virus) | EC50
CCCC[C@H]1CN([C@@H]2CCN(C)C2)c2cc(SC)c(O/C=C(\F)C(=O)O)cc2S(=O)(=O)N1C (relative stereo) [Example 54] | 1000 to 5000 nM | 
CCCCC1CN(C2CCC(F)(F)CC2)c2cc(SC)c(O/C=C(\F)C(=O)O)cc2S(=O)(=O)N1C (single isomer, unassigned) [Example 2a] |  | < 100 nM
CCCCC1CN(C2CCC(F)(F)CC2)c2cc(SC)c(O/C=C(\F)C(=O)O)cc2S(=O)(=O)N1C (single isomer, unassigned) [Example 2b] |  | 100 to 1000 nM
CCCC[C@H]1CN(C2CCN(C)C2)c2cc(SC)c(O/C=C(\F)C(=O)O)cc2S(=O)(=O)N1C (stereo in doubt) [Example 55] | 1000 to 5000 nM | 
CCCCC1CN(C2CCC(F)(F)CC2)c2cc(SC)c(O/C=C(\F)C(=O)O)cc2S(=O)(=O)N1C (stereo not drawn) [Example 2, (Z)-3-((3-butyl-5-(4,4-difluorocyclohexyl)-2-methyl-7-(methylthio)-1,1-dioxido-2,3,4,5-tetrahydrobenzo[f][1,2,5]thiadiazepin-8-yl)oxy)-2-fluoroacrylic acid] | < 100 nM | 
CCCCC1CN(C2CCC(F)(F)CC2)c2cc(SC)c(O/C=C/C(=O)O)cc2S(=O)(=O)N1C (stereo not drawn) [Example 3] | < 100 nM | 
CCCCC1CN(c2cccnc2)c2cc(SC)c(O/C=C/C(=O)O)cc2S(=O)(=O)N1C (stereo not drawn) [Example 4] | 1000 to 5000 nM | 
CCCCC1CN(c2ccccn2)c2cc(SC)c(O/C=C/C(=O)O)cc2S(=O)(=O)N1C (stereo not drawn) [Example 5] | 100 to 1000 nM | 
CCCCC1CN(c2ccc(N3CCCC3)cc2)c2cc(SC)c(O/C=C/C(=O)O)cc2S(=O)(=O)N1C (stereo not drawn) [Example 8] | < 100 nM | 
C#Cc1ccc(N2CC(CCCC)N(C)S(=O)(=O)c3cc(O/C=C/C(=O)O)c(SC)cc32)cc1 (stereo not drawn) [Example 9] | < 100 nM | 
CCCCC1CN(Cc2ccc(F)cc2)c2cc(SC)c(O/C=C(\F)C(=O)O)cc2S(=O)(=O)N1C (stereo not drawn) [Example 10] | < 100 nM | 
CCCCC1CN(c2ccc(N3CCCC3)cc2)c2cc(SC)c(O/C=C(\F)C(=O)O)cc2S(=O)(=O)N1C (stereo not drawn) [Example 11] | < 100 nM | 
CCCCC1CN(Cc2ccc(F)cc2)c2cc(SC)c(O/C=C(\F)C(=O)OCC)cc2S(=O)(=O)N1C (stereo not drawn) [Example 12] | 100 to 1000 nM | 
CCCCC1CN(Cc2ccc(SC)cc2)c2cc(SC)c(O/C=C(\F)C(=O)OCC)cc2S(=O)(=O)N1C (stereo not drawn) [Example 13] | 100 to 1000 nM | 
CCCCC1CN(C2CCCC2)c2cc(SC)c(O/C=C/C(=O)O)cc2S(=O)(=O)N1C (stereo not drawn) [Example 14] | 100 to 1000 nM | 
CCCCC1CN(Cc2ccccc2)c2cc(SC)c(O/C=C/C(=O)O)cc2S(=O)(=O)N1C (stereo not drawn) [Example 15] | 100 to 1000 nM | 
CCCCC1CN(C2CCCCC2)c2cc(SC)c(O/C=C(\F)C(=O)O)cc2S(=O)(=O)N1C (stereo not drawn) [Example 16] | < 100 nM | 
CCCCC1CN(Cc2ccc(SC)cc2)c2cc(SC)c(O/C=C(\F)C(=O)O)cc2S(=O)(=O)N1C (stereo not drawn) [Example 17] | < 100 nM | 
CCCCC1CN(C2CCC(OC)CC2)c2cc(SC)c(O/C=C(\F)C(=O)OCC)cc2S(=O)(=O)N1C (stereo not drawn) [Example 18] | < 100 nM | 
CCCCC1CN(C2CCOCC2)c2cc(SC)c(O/C=C(\F)C(=O)OCC)cc2S(=O)(=O)N1C (stereo not drawn) [Example 19] | 100 to 1000 nM | 
CCCCC1CN(c2ncccn2)c2cc(SC)c(O/C=C(\F)C(=O)OCC)cc2S(=O)(=O)N1C (stereo not drawn) [Example 20] | < 100 nM | 
CCCCC1CN(C2CCCOC2)c2cc(SC)c(O/C=C(\F)C(=O)OCC)cc2S(=O)(=O)N1C (stereo not drawn) [Example 21] | 100 to 1000 nM | 
CCCCC1CN(C2CCOC2)c2cc(SC)c(O/C=C/C(=O)O)cc2S(=O)(=O)N1C (stereo not drawn) [Example 22] | 1000 to 5000 nM | 
CCCCC1CN(C2CCOCC2)c2cc(SC)c(O/C=C/C(=O)O)cc2S(=O)(=O)N1C (stereo not drawn) [Example 23] | 100 to 1000 nM | 
CCCCC1CN(c2ncccn2)c2cc(SC)c(O/C=C(\F)C(=O)O)cc2S(=O)(=O)N1C (stereo not drawn) [Example 24] | 100 to 1000 nM | 
CCCCC1CN(C2CCCOC2)c2cc(SC)c(O/C=C(\F)C(=O)O)cc2S(=O)(=O)N1C (stereo not drawn) [Example 25] | < 100 nM | 
CCCCC1CN(C2CCOCC2)c2cc(SC)c(O/C=C(\F)C(=O)O)cc2S(=O)(=O)N1C (stereo not drawn) [Example 26] | 100 to 1000 nM | 

SMILES | EC50 (Hepatitis B virus) | EC50
CC#CCN1CC(CCCC)N(C)S(=O)(=O)c2cc(O/C=C(\F)C(=O)O)c(SC)cc21 (stereo not drawn) [Example 27] | < 100 nM | 
CCCCC1CN(Cc2ccccc2)c2cc(SC)c(O/C=C(\F)C(=O)O)cc2S(=O)(=O)N1C (stereo not drawn) [Example 28] | < 100 nM | 
CCCCC1CN(C2CCC(F)CC2)c2cc(SC)c(O/C=C(\F)C(=O)OCC)cc2S(=O)(=O)N1C (stereo not drawn) [Example 29] | 100 to 1000 nM | 
CCCCC1CN(C2CCC(F)CC2)c2cc(SC)c(O/C=C(\F)C(=O)O)cc2S(=O)(=O)N1C (stereo not drawn) [Example 30] | < 100 nM | 
CCCCC1CN(C2CCC(O)CC2)c2cc(SC)c(O/C=C(\F)C(=O)O)cc2S(=O)(=O)N1C (stereo not drawn) [Example 31] | 100 to 1000 nM | 
CCCCC1CN(C2CCCC2)c2cc(SC)c(O/C=C(\F)C(=O)O)cc2S(=O)(=O)N1C (stereo not drawn) [Example 32] | < 100 nM | 
CCCCC1CN(Cc2cc(F)ccc2F)c2cc(SC)c(O/C=C(\F)C(=O)OCC)cc2S(=O)(=O)N1C (stereo not drawn) [Example 33] | < 100 nM | 
CCCCC1CN(Cc2cc(F)ccc2F)c2cc(SC)c(O/C=C(\F)C(=O)O)cc2S(=O)(=O)N1C (stereo not drawn) [Example 34] | < 100 nM | 
CCCCC1CN(CC2CCC(F)(F)CC2)c2cc(SC)c(O/C=C(\F)C(=O)OCC)cc2S(=O)(=O)N1C (stereo not drawn) [Example 35] | 100 to 1000 nM | 
CCCCC1CN(CC2CCC(F)(F)CC2)c2cc(SC)c(O/C=C(\F)C(=O)O)cc2S(=O)(=O)N1C (stereo not drawn) [Example 36] | < 100 nM | 
CCCCC1CN(Cc2cccc(F)c2)c2cc(SC)c(O/C=C(\F)C(=O)OCC)cc2S(=O)(=O)N1C (stereo not drawn) [Example 37] | < 100 nM | 
CCCCC1CN(Cc2cccc(SC)c2)c2cc(SC)c(O/C=C(\F)C(=O)OCC)cc2S(=O)(=O)N1C (stereo not drawn) [Example 38] | 100 to 1000 nM | 
CCCCC1CN(C(=O)c2ccccc2)c2cc(SC)c(O/C=C(\F)C(=O)OCC)cc2S(=O)(=O)N1C (stereo not drawn) [Example 39] | 1000 to 5000 nM | 
CCCCC1CN(Cc2cccc(F)c2)c2cc(SC)c(O/C=C(\F)C(=O)O)cc2S(=O)(=O)N1C (stereo not drawn) [Example 40] | < 100 nM | 
CCCCC1CN(C(=O)c2ccccc2)c2cc(SC)c(O/C=C(\F)C(=O)O)cc2S(=O)(=O)N1C (stereo not drawn) [Example 41] | 1000 to 5000 nM | 
CCCCC1CN(Cc2ccc(F)c(F)c2)c2cc(SC)c(O/C=C(\F)C(=O)OCC)cc2S(=O)(=O)N1C (stereo not drawn) [Example 42] | 100 to 1000 nM | 
CCCCC1CN(Cc2ccc(F)c(F)c2)c2cc(SC)c(O/C=C(\F)C(=O)O)cc2S(=O)(=O)N1C (stereo not drawn) [Example 43] | < 100 nM | 
CCCCC1CN(C(C)c2ccccc2)c2cc(SC)c(O/C=C(\F)C(=O)OCC)cc2S(=O)(=O)N1C (stereo not drawn) [Example 44] | 100 to 1000 nM | 
CCCCC1CN(C2CC3CCC2C3)c2cc(SC)c(O/C=C(\F)C(=O)O)cc2S(=O)(=O)N1C (stereo not drawn) [Example 45] | 1000 to 5000 nM | 
CCCCC1CN(C2CCNCC2)c2cc(SC)c(O/C=C(\F)C(=O)O)cc2S(=O)(=O)N1C (stereo not drawn) [Example 46] | 1000 to 5000 nM | 
CCCCC1CN(C2CCN(C)CC2)c2cc(SC)c(O/C=C(\F)C(=O)O)cc2S(=O)(=O)N1C (stereo not drawn) [Example 47] | 1000 to 5000 nM | 
CCCCC1CN(C2CCN(C(C)=O)CC2)c2cc(SC)c(O/C=C(\F)C(=O)O)cc2S(=O)(=O)N1C (stereo not drawn) [Example 48] | 1000 to 5000 nM | 
CCCCC1CN(c2nccs2)c2cc(SC)c(O/C=C(\F)C(=O)O)cc2S(=O)(=O)N1C (stereo not drawn) [Example 49] | 100 to 1000 nM | 
CCCCC1CN(C2CCOC2)c2cc(SC)c(O/C=C(\F)C(=O)O)cc2S(=O)(=O)N1C (stereo not drawn) [Example 50] | 100 to 1000 nM | 
CCCCC1CN(C2CCC(N)CC2)c2cc(SC)c(O/C=C(\F)C(=O)O)cc2S(=O)(=O)N1C (stereo not drawn) [Example 51] | 1000 to 5000 nM | 
CCCCC1CN(C(C)c2ccccc2)c2cc(SC)c(O/C=C(\F)C(=O)O)cc2S(=O)(=O)N1C (stereo not drawn) [Example 52] | < 100 nM | 
CCCCC1CN(c2ccn(C)n2)c2cc(SC)c(O/C=C(\F)C(=O)O)cc2S(=O)(=O)N1C (stereo not drawn) [Example 53] | 100 to 1000 nM | 
